What all share (type): binding
In test [1] the target is T1, XIAP His-BIR2 (124-240/C202A/C213G) (Homo sapiens, UniProt P98170, C202A/C213G).
T1 construct: additions of His-BIR2 (124-240/C202A/C213G), Biotinylated SMAC peptide
The test is described as follows: XIAP-BIR2/SMAC Peptide AlphaScreen Assay. The protocol: A. XIAP-BIR2/SMAC Peptide AlphaScreen Assay Assays were performed in white, flat-bottom, 384-well ProxiPlates (Perkin Elmer). […] The reaction was incubated at room temperature for 60 minutes. After 60 minutes, 2.5 μL of Alphascreen detection reagent (Perkin Elmer) was added to the reaction mixture and incubated at room temperature in the dark for 120 minutes. The Alphascreen signal generated by the reaction was detected on the Envision Plate Reader. […] Compounds were dissolved at 10 mM in dimethylsulfoxide (DMSO) and evaluated at eleven concentrations. IC50 values were derived by non-linear regression analysis.

The target of test [2] is N-His-Tb-BIR3(262-352, cIAP1) (Homo sapiens, UniProt Q13490). The test is described as follows: cIAP1-BIR3 SMAC Peptide Fluorescence Polarization Assay (FPA). The note with it: Table 3. How it is done: C. cIAP1-BIR3SMAC Peptide Fluorescence Polarization Assay (FPA)
Assays were performed in black, round-bottom, 96-well plates. The final assay volume was 30 μL prepared from additions of N-His-Tb-BIR3(262-352, cIAP1), fluoresceinated modified SMAC peptide, and test compounds in assay buffer consisting of 20 mM Sodium Phosphate, 1 mM EDTA, 50 mM NaCl, and 0.05% Pluronic F68. The reaction was incubated at room temperature for 60 minutes and fluorescence polarization of the reaction was detected on the LJL Plate Reader. […] The final concentration of reagents in the assay was 36.1 nM N-His-Tb-BIR3(262-352, cIAP1), 1.4 nM fluoresceinated modified SMAC peptide, and 1% DMSO. […] Compounds were dissolved at 10 mM in dimethylsulfoxide (DMSO) and evaluated at eight concentrations. IC50 values were derived by non-linear regression analysis.

Test [3] deals with N-His-Tb-BIR3(241-356, XIAP) (Homo sapiens, UniProt P98170). Nature of the test: XIAP-BIR3 SMAC Peptide Fluorescence Polarization Assay (FPA).
Test [4] deals with T2, His-BIR2-3 (125-356, C202A/C213G, XIAP) (Homo sapiens, UniProt P98170, C202A/C213G).
T2 construct: additions of His-BIR2-3 (125-356, C202A/C213G, XIAP), fluorescein labeled dimeric SMAC peptide
Nature of the test: XIAP-BIR2-3 Dimeric SMAC Peptide Homogeneous Time Resolved Fluorescence (HTRF) Assay. The note with it: XIAP BIR2-3, HTRF, Table 4.

The target in a further test is T3, His-BIR3 (241-356, XIAP) (Homo sapiens, UniProt P98170).
T3 construct: additions of His-BIR3 (241-356, XIAP), fluorescein labeled SMAC peptide
Nature of the test: XIAP-BIR3/SMAC Homogeneous Time Resolved Fluorescence (HTRF) Assay. The note with it: Table 4.

[5] abbreviates: XIAP BIR2, AlphaScreen, Table 2, read-out: BIR2 IC50.
[6] abbreviates: XIAP BIR2, Alphascreen, Table 4, read-out: BIR2 Alpha Screen IC50.

Where two headings read alike, the source gives them in different places. Bounds are passed on as bounds.

We go through 15 compounds from patent US20140309265A1, “MACROCYCLIC COMPOUNDS FOR INHIBITION OF INHIBITORS OF APOPTOSIS” (Ensemble Therapeutics, priority 2011, published 2014).

Chain of N-His-Tb-BIR3(262-352, cIAP1) (Q13490 262-352): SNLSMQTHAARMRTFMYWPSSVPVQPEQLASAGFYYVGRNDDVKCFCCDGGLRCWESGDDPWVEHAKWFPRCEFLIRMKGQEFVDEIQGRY
Chain of N-His-Tb-BIR3(241-356, XIAP) (P98170 241-356): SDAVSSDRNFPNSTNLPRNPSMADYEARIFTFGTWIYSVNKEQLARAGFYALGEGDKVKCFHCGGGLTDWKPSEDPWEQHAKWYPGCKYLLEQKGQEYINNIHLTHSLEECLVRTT
T1 sequence (P98170 124-240 C202A/C213G): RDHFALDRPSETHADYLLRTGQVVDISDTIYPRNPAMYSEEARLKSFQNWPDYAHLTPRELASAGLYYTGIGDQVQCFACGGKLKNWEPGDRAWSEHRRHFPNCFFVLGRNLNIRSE
T3 sequence (P98170 241-356): as the sequence (P98170 241-356) above
T2 sequence (P98170 125-356 C202A/C213G): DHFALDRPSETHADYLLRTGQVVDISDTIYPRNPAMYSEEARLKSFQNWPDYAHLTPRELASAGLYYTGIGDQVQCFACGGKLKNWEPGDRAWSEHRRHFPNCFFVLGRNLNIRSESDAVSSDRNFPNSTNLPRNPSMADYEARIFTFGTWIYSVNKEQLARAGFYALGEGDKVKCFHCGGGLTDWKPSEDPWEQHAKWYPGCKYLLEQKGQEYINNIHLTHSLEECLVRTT

For `CN[C@@H](C)C(=O)N[C@H](C(=O)N1C[C@@H]2C[C@H]1C(=O)N[C@@H](Cc1ccc3ccccc3c1)C(=O)N[C@H](C(=O)O)Cc1ccc(cc1)OCc1cn(nn1)[C@H]1C[C@@H](C(=O)N[C@@H](Cc3ccc4ccccc4c3)C(=O)N[C@H](C(=O)O)Cc3ccc(cc3)OCc3cn2nn3)N(C(=O)[C@@H](NC(=O)[C@H](C)NC)C(C)C)C1)C(C)C` [Compound 110], the IC50 is under 2000 nM in test [1] (setting [5]), under 50 nM in test [2] and under 50 nM in test [3].

On to `CN[C@@H](C)C(=O)N[C@H](C(=O)N1C[C@@H]2C[C@H]1C(=O)N[C@@H](Cc1cccc3ccccc13)C(=O)N[C@H](C(=O)O)Cc1ccc(cc1)COc1cn(nn1)[C@H]1C[C@@H](C(=O)N[C@@H](Cc3cccc4ccccc34)C(=O)N[C@H](C(=O)O)Cc3ccc(cc3)OCc3cn2nn3)N(C(=O)[C@@H](NC(=O)[C@H](C)NC)C(C)C)C1)C(C)C` [Compound 111], for which the results for the IC50 in test [1] (setting [5]), in test [2] and in test [3] were under 2000 nM, under 50 nM and under 50 nM, respectively.

Turning to `CN[C@@H](C)C(=O)N[C@H](C(=O)N1C[C@@H]2C[C@H]1C(=O)N[C@@H](Cc1ccccc1)C(=O)N(C)[C@H](C(=O)O)Cc1ccc(cc1)OCc1cn(nn1)[C@H]1C[C@@H](C(=O)N[C@@H](Cc3ccccc3)C(=O)N(C)[C@H](C(=O)O)Cc3ccc(cc3)OCc3cn2nn3)N(C(=O)[C@@H](NC(=O)[C@H](C)NC)C(C)C)C1)C(C)C` [Compound 133], the 50% inhibitory concentration (IC50) in test [1] (setting [5]) was under 2000 nM; in test [3], under 50 nM.

As to `CN[C@@H](C)C(=O)N[C@H](C(=O)N1C[C@@H]2C[C@H]1C(=O)N[C@@H](Cc1ccc3ccccc3c1)C(=O)N(C)[C@H](C(=O)O)Cc1ccc(cc1)OCc1cn(nn1)[C@H]1C[C@@H](C(=O)N[C@@H](Cc3ccc4ccccc4c3)C(=O)N(C)[C@H](C(=O)O)Cc3ccc(cc3)OCc3cn2nn3)N(C(=O)[C@@H](NC(=O)[C@H](C)NC)C(C)C)C1)C(C)C` [Compound 134], the IC50 was under 2000 nM in test [1] (setting [5]) and 50 to 100 nM in test [3].

In the case of `CN[C@@H](C)C(=O)N[C@H](C(=O)N1C[C@@H]2C[C@H]1C(=O)N[C@@H](Cc1ccccc1)C(=O)N[C@H](C(=O)O)Cc1ccc(cc1)OCCCn1cc(nn1)-c1ccc(cc1)-c1cn(nn1)[C@H]1C[C@@H](C(=O)N[C@@H](Cc3ccccc3)C(=O)N[C@H](C(=O)O)Cc3ccc(cc3)OCCCn3cc(nn3)-c3ccc(cc3)-c3cn2nn3)N(C(=O)[C@@H](NC(=O)[C@H](C)NC)C(C)C)C1)C(C)C` [Compound 137], the IC50 in test [1] (setting [5]) is under 2000 nM; in test [2] it was under 50 nM; in test [3] it was under 50 nM.

As to `CN[C@@H](C)C(=O)N[C@H](C(=O)N1CC2C[C@H]1C(=O)N[C@@H](Cc1ccc3ccccc3c1)C(=O)N[C@H](C(=O)O)Cc1cn(nn1)[C@H]1C[C@@H](C(=O)N[C@@H](Cc3ccc4ccccc4c3)C(=O)N[C@H](C(=O)O)Cc3cn2nn3)N(C(=O)[C@@H](NC(=O)[C@H](C)NC)C(C)C)C1)C(C)C` [Compound 140], the IC50 in test [1] (setting [5]) was under 2000 nM; in test [3] it was under 50 nM.

Take `CN[C@@H](C)C(=O)N[C@H](C(=O)N1C[C@@H]2C[C@H]1C(=O)N[C@@H](Cc1ccc3ccccc3c1)C(=O)N[C@H](C(=O)O)Cc1ccc(cc1)OCc1cn(nn1)[C@H]1C[C@@H](C(=O)N[C@@H](Cc3ccc4ccccc4c3)C(=O)N[C@H](C(=O)NS(=O)(=O)C3CC3)Cc3ccc(cc3)OCc3cn2nn3)N(C(=O)[C@@H](NC(=O)[C@H](C)NC)C(C)(C)C)C1)C(C)(C)C` [Compound 147]: the IC50 in test [1] (setting [6]) is under 2000 nM; in test [4], 1 to 10 nM; in test [3], under 50 nM; against His-BIR3 (241-356, XIAP) it was under 10 nM.

For the compound `CN[C@@H](C)C(=O)N[C@H](C(=O)N1C[C@@H]2C[C@H]1C(=O)N[C@@H](Cc1ccc3ccccc3c1)C(=O)N[C@H](C(=O)NS(=O)(=O)C1CC1)Cc1ccc(cc1)OCc1cn(nn1)[C@H]1C[C@@H](C(=O)N[C@@H](Cc3ccc4ccccc4c3)C(=O)N[C@H](C(=O)NS(=O)(=O)C3CC3)Cc3ccc(cc3)OCc3cn2nn3)N(C(=O)[C@@H](NC(=O)[C@H](C)NC)C(C)(C)C)C1)C(C)(C)C` [Compound 148], the half-inhibitory concentration (IC50) in test [1] (setting [6]) was under 2000 nM; in test [4], at most 1 nM; in test [3] it was under 50 nM; on His-BIR3 (241-356, XIAP) it was under 10 nM.

Regarding `CN[C@@H](C)C(=O)N[C@H](C(=O)N1C[C@@H]2C[C@H]1C(=O)N[C@@H](Cc1ccccc1)C(=O)N[C@H](C(=O)O)Cc1ccc(cc1)OCc1cn(nn1)[C@H]1C[C@@H](C(=O)N[C@@H](Cc3ccc4ccccc4c3)C(=O)N[C@H](C(=O)O)Cc3ccc(cc3)OCc3cn2nn3)N(C(=O)[C@@H](NC(=O)[C@H](C)NC)C(C)(C)C)C1)C(C)(C)C` [Compound 149], the IC50 in test [1] (setting [6]) is under 2000 nM; in test [3], under 50 nM.

For `CN[C@@H](C)C(=O)N[C@H](C(=O)N1C[C@@H]2C[C@H]1C(=O)N[C@@H](Cc1ccccc1)C(=O)N[C@H](C(=O)O)Cc1ccc(cc1)OCc1cn(nn1)[C@H]1C[C@@H](C(=O)N[C@@H](Cc3ccc4ccccc4c3)C(=O)N[C@H](C(=O)OC)Cc3ccc(cc3)OCc3cn2nn3)N(C(=O)[C@@H](NC(=O)[C@H](C)NC)C(C)(C)C)C1)C(C)(C)C` [Compound 150], the IC50 in test [1] (setting [6]) is under 2000 nM; in test [3] it was 50 to 100 nM.

Turning to `CN[C@@H](C)C(=O)N[C@H](C(=O)N1C[C@@H]2C[C@H]1C(=O)N[C@@H](Cc1ccc3ccccc3c1)C(=O)N[C@H](C(=O)O)Cc1ccc(cc1)OCc1cn(nn1)[C@H]1C[C@@H](C(=O)N[C@@H](Cc3ccc4ccccc4c3)C(=O)N[C@H](C(=O)NS(C)(=O)=O)Cc3ccc(cc3)OCc3cn2nn3)N(C(=O)[C@@H](NC(=O)[C@H](C)NC)C(C)(C)C)C1)C(C)(C)C` [Compound 1002], the IC50 in test [1] (setting [6]) is under 2000 nM; in test [3] it was under 50 nM.

For the compound `CN[C@@H](C)C(=O)N[C@H](C(=O)N1C[C@@H]2C[C@H]1C(=O)N[C@@H](Cc1ccc3ccccc3c1)C(=O)N[C@H](C(=O)NS(=O)(=O)c1ccccc1)Cc1ccc(cc1)OCc1cn(nn1)[C@H]1C[C@@H](C(=O)N[C@@H](Cc3ccc4ccccc4c3)C(=O)N[C@H](C(=O)NS(=O)(=O)c3ccccc3)Cc3ccc(cc3)OCc3cn2nn3)N(C(=O)[C@@H](NC(=O)[C@H](C)NC)C(C)(C)C)C1)C(C)(C)C` [Compound 1003], the IC50 in test [1] (setting [6]) is under 2000 nM; in test [3], 50 to 100 nM.

As for `CN[C@@H](C)C(=O)N[C@H](C(=O)N1C[C@@H]2C[C@H]1C(=O)N[C@@H](Cc1ccc3ccccc3c1)C(=O)N[C@H](C(=O)NS(C)(=O)=O)Cc1ccc(cc1)OCc1cn(nn1)[C@H]1C[C@@H](C(=O)N[C@@H](Cc3ccc4ccccc4c3)C(=O)N[C@H](C(=O)NS(C)(=O)=O)Cc3ccc(cc3)OCc3cn2nn3)N(C(=O)[C@@H](NC(=O)[C@H](C)NC)C(C)(C)C)C1)C(C)(C)C` [Compound 1004], the IC50 in test [1] (setting [6]) was under 2000 nM; in test [3], 50 to 100 nM.

On to `CCS(=O)(=O)NC(=O)[C@@H]1Cc2ccc(cc2)OCc2cn(nn2)[C@H]2C[C@@H](C(=O)N[C@@H](Cc3ccc4ccccc4c3)C(=O)N[C@H](C(=O)NS(=O)(=O)CC)Cc3ccc(cc3)OCc3cn(nn3)[C@H]3C[C@@H](C(=O)N[C@@H](Cc4ccc5ccccc5c4)C(=O)N1)N(C(=O)[C@@H](NC(=O)[C@H](C)NC)C(C)(C)C)C3)N(C(=O)[C@@H](NC(=O)[C@H](C)NC)C(C)(C)C)C2` [Compound 1005], for which the results for the IC50 in test [1] (setting [6]) and in test [3] were under 2000 nM and under 50 nM, respectively.

Regarding `CN[C@@H](C)C(=O)N[C@H](C(=O)N1C[C@@H]2C[C@H]1C(=O)N[C@@H](Cc1ccc3ccccc3c1)C(=O)N[C@H](C(=O)NS(=O)(=O)C(F)(F)F)Cc1ccc(cc1)OCc1cn(nn1)[C@H]1C[C@@H](C(=O)N[C@@H](Cc3ccc4ccccc4c3)C(=O)N[C@H](C(=O)NS(=O)(=O)C(F)(F)F)Cc3ccc(cc3)OCc3cn2nn3)N(C(=O)[C@@H](NC(=O)[C@H](C)NC)C(C)(C)C)C1)C(C)(C)C` [Compound 1007], the IC50 in test [1] (setting [6]) lay within 2000 to 12000 nM; in test [3], 50 to 100 nM.
